Results published in patent publication US12129237B2, “Substituted diaminocarboxamide and diaminocarbonitrile pyrimidines, compositions thereof, and methods of treatment therewith” (SIGNAL PHARMACEUTICALS, LLC, priority 2011, dated 2024).

target: T1, JNK1 (Homo sapiens, UniProt P45983); assay: JNK1 biochemical assays (one or more of: time resolved fluorescence, Z'-LYTE Cascade, radioactive); conditions: Table 2; JNK1 IC50 activity level; read-out: Act. Level
T1 construct: purchased Carna Biosciences
T1 sequence (P45983 whole entry): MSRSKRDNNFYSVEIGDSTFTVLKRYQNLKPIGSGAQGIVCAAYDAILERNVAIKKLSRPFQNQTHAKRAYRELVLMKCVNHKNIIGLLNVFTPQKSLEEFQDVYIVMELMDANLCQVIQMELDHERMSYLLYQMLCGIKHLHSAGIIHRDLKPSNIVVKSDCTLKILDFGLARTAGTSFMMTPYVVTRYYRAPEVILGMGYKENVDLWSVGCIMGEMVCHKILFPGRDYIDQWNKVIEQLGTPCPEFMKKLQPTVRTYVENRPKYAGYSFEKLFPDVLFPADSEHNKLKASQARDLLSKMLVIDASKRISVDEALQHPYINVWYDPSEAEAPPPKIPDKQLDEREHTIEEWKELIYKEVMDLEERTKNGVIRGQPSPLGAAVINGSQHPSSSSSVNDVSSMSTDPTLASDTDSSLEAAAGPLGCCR

IC50 [nM] | SMILES
200 to 800 | CCCNc1ncc(C(N)=O)c(Nc2ccccc2)n1 [Example B-68, 4-(phenylamino)-2-(propylamino)pyrimidine-5-carboxamide]
< 200 | CCN(CC)c1ccc(Nc2ncc(C(N)=O)c(Nc3ccccc3)n2)cc1 [Example B-13, 2-(4-(diethylamino)phenylamino)-4-(phenylamino)pyrimidine-5-carboxamide]
800 to 1000 | CCOc1ccccc1CNc1ncc(C(N)=O)c(Nc2ccccc2)n1 [Example B-54, 2-(2-ethoxybenzylamino)-4-(phenylamino)pyrimidine-5-carboxamide]

same assay, conditions: Table 3; JNK1 IC50 activity level; read-out: Act. Level

IC50 [nM] | SMILES
< 200 | CO[C@H]1CC[C@H](Nc2ncc(C#N)c(N[C@@H]3CCCC[C@H](O)C3)n2)CC1 [Example C-27, 4-((1R,3S)-3-hydroxycycloheptylamino)-2-((1r,4R)-4-methoxycyclohexylamino) pyrimidine-5-carbonitrile]
< 200 | CO[C@H]1CC[C@H](Nc2ncc(C#N)c(N[C@@H]3CCC[C@](C)(O)C3)n2)CC1 [Example C-19, 4-((1R,3S)-3-hydroxy-3-methylcyclohexylamino)-2-((1r,4R)-4-methoxycyclohexylamino) pyrimidine-5-carbonitrile]
< 200 | CO[C@H]1CC[C@H](Nc2ncc(C#N)c(N[C@@H]3CC[C@@H](C)C(O)C3)n2)CC1 (stereo partly drawn) [Example C-46, 4-((1R,3R,4R)-3-hydroxy-4-methylcyclohexylamino)-2-((1r,4R)-4-methoxycyclohexylamino) pyrimidine-5-carbonitrile]
200 to 800 | N#Cc1cnc(NC2CCC(F)(F)CC2)nc1N[C@@H]1CCC[C@H](O)C1 [Example C-3, 2-(4,4-difluorocyclohexylamino)-4-((1R,3S)-3-hydroxycyclohexylamino) pyrimidine-5-carbonitrile]

same assay, conditions: one or more of the JNK1 biochemical assays; read-out: Act. Level (JNK1 IC50 activity level)

IC50 [nM] | SMILES
< 200 | NC(=O)c1cnc(N[C@H]2CC[C@H](O)CC2)nc1NC1CC(F)(F)C1 [Example 217, 4-(3,3-difluorocyclobutylamino)-2-((1r,4r)-4-hydroxycyclohexylamino)pyrimidine-5-carboxamide]
< 200 | NC(=O)c1cnc(N[C@H]2CC[C@H](OC(F)F)CC2)nc1N[C@@H]1CCC[C@@H]1CO [Example 268, 2-((1r,4R)-4-(difluoromethoxy)cyclohexylamino)-4-((1R,2S)-2-(hydroxymethyl)cyclopentylamino)pyrimidine-5-carboxamide]
< 200 | CC(C)(C)Nc1nc(N[C@H]2CC[C@](C)(O)CC2)ncc1C(N)=O [Example 302, 4-(tert-butylamino)-2-((1r,4r)-4-hydroxy-4-methylcyclohexylamino)pyrimidine-5-carboxamide]
< 200 | C[C@@H]1CC[C@@H](Nc2nc(NC3CCCC3)ncc2C(N)=O)C[C@H]1O [Example 364, 2-(cyclopentylamino)-4-((1R,3R,4R)-3-hydroxy-4-methylcyclohexylamino)pyrimidine-5-carboxamide]
< 200 | CCC(C)(C)Nc1ncc(C(N)=O)c(N[C@@H]2CC[C@@H](C)[C@H](O)C2)n1 [Example 286, 4-((1R,3R,4R)-3-hydroxy-4-methylcyclohexylamino)-2-(tert-pentylamino)pyrimidine-5-carboxamide]
< 200 | NC(=O)c1cnc(NC23CCC(O)(CC2)CC3)nc1N[C@@H]1CCC[C@H](O)C1 [Example 229, 2-(4-hydroxybicyclo[2.2.2]octan-1-ylamino)-4-((1R,3S)-3-hydroxycyclohexylamino)pyrimidine-5-carboxamide]
< 200 | NC(=O)c1cnc(NC23CCC(O)(CC2)C3)nc1NC1CCC1 [Example 447, 4-(cyclobutylamino)-2-(4-hydroxybicyclo[2.2.1]heptan-1-ylamino)pyrimidine-5-carboxamide]
< 200 | CN(C)C(=O)[C@H]1CC[C@H](Nc2ncc(C(N)=O)c(NC(C)(C)C)n2)CC1 [Example 308, 4-(tert-butylamino)-2-((1r,4r)-4-(dimethylcarbamoyl)cyclohexylamino)pyrimidine-5-carboxamide]
< 200 | C[C@@H](Nc1nc(N[C@H]2CC[C@H](OC3CC3)CC2)ncc1C(N)=O)C1CC1 [Example 410, 2-((1r,4R)-4-cyclopropoxycyclohexylamino)-4-((R)-1-cyclopropylethylamino)pyrimidine-5-carboxamide]
< 200 | CC(C)(C)Nc1nc(NC2(C)CCOCC2)ncc1C(N)=O [Example 389, 4-(tert-butylamino)-2-(4-methyltetrahydro-2H-pyran-4-ylamino)pyrimidine-5-carboxamide]
< 200 | NC(=O)c1cnc(N[C@]23CC[C@@](O)(CC2)C3)nc1NC12CC(C1)C2 [Example 458, 4-(bicyclo[1.1.1]pentan-1-ylamino)-2-((1r,4r)-4-hydroxybicyclo[2.2.1]heptan-1-ylamino)pyrimidine-5-carboxamide]
< 200 | CCC(C)(C)Nc1ncc(C(N)=O)c(N[C@@H]2CCC[C@](C)(O)C2)n1 [Example 350, 4-((1R,3S)-3-hydroxy-3-methylcyclohexylamino)-2-(tert-pentylamino)pyrimidine-5-carboxamide]
< 200 | C[C@H](Nc1ncc(C(N)=O)c(N[C@@H]2CC[C@@H](C)[C@H](O)C2)n1)C1CCC1 [Example 460, 2-((S)-1-cyclobutylethylamino)-4-((1R,3R,4R)-3-hydroxy-4-methylcyclohexylamino)pyrimidine-5-carboxamide]
< 200 | CCO[C@H]1CC[C@H](Nc2ncc(C(N)=O)c(NC34CC(C)(C3)C4)n2)CC1 [Example 443, 2-((1r,4r)-4-ethoxycyclohexylamino)-4-(3-methylbicyclo[1.1.1]pentan-1-ylamino)pyrimidine-5-carboxamide]

same assay, conditions: tested in one or more of the JNK1 biochemical assays; read-out: Act. Level (JNK1 biochemical assay IC50 activity level)

IC50 [nM] | SMILES
800 to 1000 | CC(C)Nc1ncc(C(N)=O)c(N[C@H]2CC[C@@H](C(=O)N3CCCC3)CC2)n1 [Example A-143, 2-(isopropylamino)-4-((1s,4s)-4-(pyrrolidine-1-carbonyl)cyclohexylamino)pyrimidine-5-carboxamide]
800 to 1000 | NC(=O)c1cnc(NC2CCOCC2)nc1N[C@H]1CC[C@@H](C(=O)N2CCCC2)CC1 [Example A-112, 4-((1s,4s)-4-(pyrrolidine-1-carbonyl)cyclohexylamino)-2-(tetrahydro-2H-pyran-4-ylamino)pyrimidine-5-carboxamide]
200 to 800 | CCO[C@@H]1CC[C@@H](Nc2ncc(C(N)=O)c(N[C@H]3CCC[C@@H]3O)n2)C1 [Example A-76, 2-((1R,3R)-3-ethoxycyclopentylamino)-4-((1S,2S)-2-hydroxycyclopentylamino)pyrimidine-5-carboxamide]
< 200 | CNC(=O)[C@H]1CC[C@H](Nc2ncc(C(N)=O)c(NC(C)C)n2)CC1 [Example A-199, 4-(isopropylamino)-2-((1r,4r)-4-(methylcarbamoyl)cyclohexylamino)pyrimidine-5-carboxamide]
< 200 | COC[C@H]1CC[C@H](Nc2ncc(C(N)=O)c(N[C@H]3CCC[C@@H]3O)n2)CC1 [Example A-92, 4-((1S,2S)-2-hydroxycyclopentylamino)-2-((1r,4S)-4-(methoxymethyl)cyclohexylamino)pyrimidine-5-carboxamide]
< 200 | CC(C)CC(=O)N1CCC(Nc2ncc(C(N)=O)c(N[C@H]3C[C@@H](O)C3)n2)CC1 [Example A-68, 4-((1s,3s)-3-hydroxycyclobutylamino)-2-(1-(3-methylbutanoyl)piperidin-4-ylamino)pyrimidine-5-carboxamide]
